Measured values published in patent publication US20250085273A1, “NOVEL RAPID DRUG DISCOVERY FOR SEPSIS AND AGENTS FOR USE AS SEPSIS THERAPY” (priority 2023, published 2025).
pKi: −log10 of the molar value. Read-outs that look alike come from different tables or passages of the source.

Experiments:
[1] = tested on: 3-dpf Zebrafish Embryos Challenged with LPS (P. aeruginosa 60 μg/mL); format: in vivo, Danio rerio; details: P. aeruginosa LPS 60 μg/mL, compound 10 μM
Outline: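 3-dpf PTU-treated AB zebrafish embryos exposed to 60 μg/mL P. aeruginosa LPS plus 10 μM compound (final) at 28.5 °C, n=16 per compound. Tail edema and mortality scored at 6 and 24 h post exposure; rescue judged against LPS-only controls at 24 h.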

[2] = tested on: 5-dpf zebrafish larvae challenged with P. aeruginosa LPS 60 μg/mL; format: in vivo, Danio rerio; details: compound 10 μM
[3] = tested on: zebrafish (4 dpf pre-treated, LPS exposure at 5-dpf) challenged with P. aeruginosa LPS 60 μg/mL; format: in vivo, Danio rerio
Outline: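 PTU-treated 4 dpf zebrafish embryos received a 24-hour drug pre-treatment at 28.5 °C, alongside an untreated parallel group, before challenge at 5 dpf with P. aeruginosa LPS at 60 μg/mL. Tail edema and mortality were scored at 6 and 24 h post exposure, followed by a neurobehavioral test.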

[4] = tested on: larval zebrafish locomotor behavior; format: in vivo; details: in vivo
Text: This assay is a modified version of the larval zebrafish light dark transition assay with an added UV light (wavelength=295 nm) phase to capture any compound specific neurological effects to UV light. (Basnet et al., 2019, Kokel et al., 2013, Peng et al., 2016). The light period assesses deviations from normal locomotor behavior while the rapid transition to dark provides a measure of stress response by identifying any deviations from the normal heightened locomotor activity caused by the transition to dark. The neurobehavioral assay used a custom trial control script created by Noldus Ethovision XT 15, and it was executed in a Noldus DanioVision system. Zebrafish larvae in microplates were allowed to habituate in the DanioVision system for 5 minutes under white light conditions prior to the start of the test. The neurobehavioral assay consisted of three phases: a 3-minute light phase (white light), a 3-minute dark phase (no light) and a 5 second UV phase (UV light only). The Danio Vision system captured larval zebrafish movement throughout this assay at 30 frames per second.
LC50s for the LPS tests were determined using the Trimmed Spearmen-Karber method (Hamilton et al., 1977). The tail edema and mortality data from the initial and confirmatory drug testing was analyzed using GraphPad Prism 9 using Fisher's Exact Test. Each drug treatment group was compared pairwise with the on-board positive control group on each test plate. Statistical significance was determined with values of p≤0.05. Neurological behavioral testing data was analyzed by Ethovision software that produced an activity analysis profile per frame for each well of the 96 well plates. Any dead embryos were removed from the data set, and the remaining data set was imported into Excel. The offset function in Excel was used to average the percentage of pixel change per 0.1 s for each plate. […] The behavioral data was then statistically analyzed by drug per phase using a 2 tailed t-test to determine statistical significance p≤0.01.

5-HT2B = 5-HT2B (Homo sapiens, UniProt P41595); details: read-out: affinity (Ki) 5-HT2B; cited from earlier work
D3 = D3 (Homo sapiens, UniProt P35462); details: read-out: affinity (Ki) D3; cited from earlier work
[5] = number of n = 16 fish, 24-hour 10 μM drug pre-treatment
[6] = number of n = 16 fish, no 24-hour pre-treatment

Sequence of D3 (P35462 whole entry): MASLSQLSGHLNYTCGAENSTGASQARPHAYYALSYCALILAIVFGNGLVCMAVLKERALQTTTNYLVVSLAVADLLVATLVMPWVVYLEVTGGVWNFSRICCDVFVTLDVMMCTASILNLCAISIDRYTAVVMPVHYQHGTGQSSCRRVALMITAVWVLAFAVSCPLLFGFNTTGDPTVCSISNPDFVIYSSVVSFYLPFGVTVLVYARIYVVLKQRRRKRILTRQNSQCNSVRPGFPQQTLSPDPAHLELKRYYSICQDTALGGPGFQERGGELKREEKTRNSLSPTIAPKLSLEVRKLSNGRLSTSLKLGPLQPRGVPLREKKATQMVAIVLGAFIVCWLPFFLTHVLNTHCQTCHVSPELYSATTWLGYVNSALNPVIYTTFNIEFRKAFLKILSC
Sequence of 5-HT2B (P41595 whole entry, species assumed): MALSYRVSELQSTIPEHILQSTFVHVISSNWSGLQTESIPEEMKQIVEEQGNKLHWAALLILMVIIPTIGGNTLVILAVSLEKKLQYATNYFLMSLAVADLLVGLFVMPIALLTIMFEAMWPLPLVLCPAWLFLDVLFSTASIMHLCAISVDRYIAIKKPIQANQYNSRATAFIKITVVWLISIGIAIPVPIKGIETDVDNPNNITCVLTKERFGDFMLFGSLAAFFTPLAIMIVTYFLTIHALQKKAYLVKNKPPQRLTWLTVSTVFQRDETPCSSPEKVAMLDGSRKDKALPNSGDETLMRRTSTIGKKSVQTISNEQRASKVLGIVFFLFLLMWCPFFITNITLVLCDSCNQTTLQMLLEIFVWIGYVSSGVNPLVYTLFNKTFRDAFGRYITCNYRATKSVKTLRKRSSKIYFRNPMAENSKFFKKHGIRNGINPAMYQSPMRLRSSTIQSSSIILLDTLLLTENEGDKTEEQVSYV

SMILES: O=c1ccc2ccc(OCCCCN3CCN(c4cccc5sccc45)CC3)cc2[nH]1 [Compound 45, Brexpiprazole]
- Percent Rescue (Mort + Tail Edema) ([1]; 3-dpf embryos, 24 hours, n=16): 100%
- rescue of tail edema and mortality (sepsis rescue rate) at 3-dpf ([1]; 3-dpf, 24 hours): 100%
- 3 dpf Embryos Percent Rescue (Mort + Tail Edema) ([1]; initial 3-dpf screen shown for reference): 100%
- 5 dpf Embryos Percent Rescue (Mort + Tail Edema) ([2]; 5-dpf larvae): 94%
- rescue of tail edema and mortality (sepsis rescue rate) at 5-dpf [2]: 94%
- rescue of tail edema and mortality (sepsis rescue rate) at 5-dpf ([2]; listed as brexpiprazole): 100%
- Pre-Treatment Rescue (n = 16) ([3]; 24-hour drug pre-treatment, P. aeruginosa LPS 60 μg/mL): 94%
- No Pre-Treatment Rescue (n = 16) ([3]; no 24-hour drug pre-treatment, P. aeruginosa LPS 60 μg/mL): 94%
- 24 hour Tail Edema, No-Drug Pretreatment ([3]; number of n = 16 fish, 10 μM drug with LPS 60 μg/mL, no 24-hour pre-treatment): 1 fish
- 24 Hour Mortality and Tail Edema, Drug Pretreatment [3, 5]: 1 fish
- 24 Hour Mortality, Drug Pretreatment [3, 5]: 1 fish
- 24 hour Tail Edema, Drug Pretreatment ([3]; number of n = 16 fish, 24-hour 10 μM drug pre-treatment before LPS 60 μg/mL): 0 fish
- 24 Hour Mortality and Tail Edema, No-Drug Pretreatment [3, 6]: 1 fish
- 24 Hour Mortality, No Drug Pretreatment [3, 6]: 0 fish
- activity during the dark phase [4]: not significant
- pKi (5-HT2B): 8.72
- pKi (D3): 8.96
